Experiment: Solubility of Compound A in mediums with various pHs
Type: physicochemical
Settings: mediums with various pHs including water (Fig. 4)
Excerpt: Thus, as shown in Fig. 5 in the results of the dissolution test of the tablets prepared by a conventional means employed for formulation of preparations, such as mixing Compound A with lactose, corn starch, etc. for granulation, adding talc, magnesium stearate, etc. and compressing same, the dissolution property is not entirely satisfactory, reflecting the properties of the compound per se.
Fig. 1 is a graph showing the results of the dissolution test of the fine granules of Reference Example 1 and Example 1 in the 1st fluid and the 2nd fluid, Fig. 2 is a graph showing the results of the dissolution test of the tablets of Reference Example 2 and Example 2 in the 1st fluid and the 2nd fluid, Fig. 3 is a graph showing the results of the dissolution test of the fine granules of Reference Example 1 and Example 3 in the 1st fluid and the 2nd fluid, Fig. 4 is a graph showing the solubilities of Compound A in mediums with various pHs, and Fig. 5 is a graph showing the results of the dissolution test of the tablets prepared by the conventional formulation methods in the 1st fluid and the 2nd fluid.

- solubility: slightly soluble
Compound: O=c1cc2c(nn1-c1ccc(Cl)cc1)-c1ccccc1[S+]([O-])CC2 (stereo not shown) [Compound A, 2-(4-chlorophenyl)-5,6-dihydro-(1)benzothiepino[5,4-c]pyridazine-3(2H)-one 7-oxide]

— patent EP0487768A1, “Pharmaceutical composition with improved dissolution property” (YOSHITOMI PHARMACEUTICAL INDUSTRIES, LTD., priority 1990, dated 1992)
